According to patent US9249096B2, “Pyrrolinone carboxamide compounds useful as endothelial lipase inhibitors” (Bristol-Myers Squibb Company, priority 2011, dated 2016):
pIC50: −log10 of the molar value.

What follows are compounds tested against endothelial lipase (EL) (Homo sapiens (Human), UniProt Q9Y5X9) (assay: Endothelial lipase (EL) enzymatic assay with fluorescent substrate A10070 in DMPG vesicles). Conditions: conditioned media from HT-1080 cells overexpressing endogenous EL; 20 min preincubation at 37° C.; read-out: HLE_EL_CRC IC50.
Format: biochemical
Protocol: Endothelial lipase activity was measured using a fluorescent substrate, A10070, (Invitrogen, CA) doped into an artificial vesicle containing DMPG (Avanti Polar Lipids) as the excipient. Vesicles were prepared by combining 285 uL of 1 mM DMPG in a 1:1 mixture of MeOH and CHCl3 with 15 uL of 1 mM A10070 in a 1:1 mixture of MeOH and CHCl3. The mixture was dried under nitrogen and resuspended in 150 uL of 50 mM HEPES pH 8.0 buffer containing 100 mM NaCl and 0.2 mM EDTA. The sample was allowed to sit at rt for 15 min and then was sonicated 3×4 mins on ice with a Branson Sonicator using duty cycle 1. This preparation provides vesicles with a mole fraction of 0.05 for the FRET substrate.
The enzymatic assay was measured using white, opaque 96-well half area plates. Each well contained 60 uL of assay buffer (50 mM HEPES pH 8.0, 50 mM NaCl and 1 mM CaCl2) and 2 ul of a DMSO solution containing compound of interest. Conditioned media obtained from HT-1080 cells, which were transformed by RAGE technology (Athersys) to overexpress endogenous EL, was added and the reaction was allowed to incubate for 20 min at 37° C. with gentle agitation. The reaction was started by the addition of 20 uL of a 1:4 dilution of vesicles. The final total reaction volume was 100 uL. The reaction rates were measured on a Gemini plate reader with an excitation wavelength of 488 nm and a emission of 530 nm. Readings were taken every 20 seconds for 10 min with agitation between each reading. The slope of the linear portion of the readout was used to calculate the rate of the reaction.
The exemplified examples disclosed in the present invention were tested in the EL assay described above and found having EL inhibitory activity.

Chain of endothelial lipase (EL) (Q9Y5X9 21-500): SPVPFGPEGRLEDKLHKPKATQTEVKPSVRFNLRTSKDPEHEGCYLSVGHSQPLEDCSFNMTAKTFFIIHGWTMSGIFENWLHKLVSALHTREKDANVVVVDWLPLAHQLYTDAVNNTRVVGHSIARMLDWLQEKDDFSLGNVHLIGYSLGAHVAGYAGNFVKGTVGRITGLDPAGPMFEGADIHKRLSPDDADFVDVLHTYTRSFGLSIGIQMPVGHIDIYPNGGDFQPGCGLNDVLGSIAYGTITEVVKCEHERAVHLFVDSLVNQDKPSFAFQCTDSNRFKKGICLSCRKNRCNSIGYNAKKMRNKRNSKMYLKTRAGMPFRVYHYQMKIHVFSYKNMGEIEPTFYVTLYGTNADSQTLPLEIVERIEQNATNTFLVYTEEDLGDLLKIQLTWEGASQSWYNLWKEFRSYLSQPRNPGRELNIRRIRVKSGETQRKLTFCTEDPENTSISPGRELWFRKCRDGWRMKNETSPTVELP

First: CC(C)OCCN1CC(C(=O)NCCCc2ccc(Cl)c(Cl)c2)=C(O)C1=O [Example 65, N-(3-(3,4-dichlorophenyl)propyl)-4-hydroxy-1-(2-isopropoxyethyl)-5-oxo-2,5-dihydro-1H-pyrrole-3-carboxamide]
Second: CC(C)CCN1CC(C(=O)NCCCc2ccc(Cl)c(Cl)c2)=C(O)C1=O [Example 45, N-(3-(3,4-dichlorophenyl)propyl)-4-hydroxy-1-isopentyl-5-oxo-2,5-dihydro-1H-pyrrole-3-carboxamide]
The pIC50 of the first is 0.23 log units higher: 8.80 for the first, 8.57 for the second.

Compared with O=C(NCCCc1ccc(Cl)c(Cl)c1)C1=C(O)C(=O)N(CCc2ccccc2Cl)C1 [Example 53, 1-(2-chlorophenethyl)-N-(3-(3,4-dichlorophenyl)propyl)-4-hydroxy-5-oxo-2,5-dihydro-1H-pyrrole-3-carboxamide], O=C(NCCCc1ccc(Cl)c(Cl)c1)C1=C(O)C(=O)N(CCc2ccccc2)C1 [Example 44, N-(3-(3,4-dichlorophenyl)propyl)-4-hydroxy-5-oxo-1-phenethyl-2,5-dihydro-1H-pyrrole-3-carboxamide] is 0.21 log units higher in pIC50: 8.28 for the first, 8.49 for the second.

Cc1ccc(CC2C(C(=O)NCCCc3ccc(Cl)c(Cl)c3)=C(O)C(=O)N2C)cc1 (stereo not drawn) [Example 30, N-(3-(3,4-dichlorophenyl)propyl)-4-hydroxy-1-methyl-2-(4-methylbenzyl)-5-oxo-2,5-dihydro-1H-pyrrole-3-carboxamide] and CN1C(=O)C(O)=C(C(=O)NCCCc2ccc(Cl)c(Cl)c2)C1CCc1ccccc1 (single isomer, unassigned; isomer a) [Example 195, N-(3-(3,4-dichlorophenyl)propyl)-4-hydroxy-1-methyl-5-oxo-2-phenethyl-2,5-dihydro-1H-pyrrole-3-carboxamide (isomer A)] are within 0.2 log units of each other in pIC50: 6.23 for the first, 6.28 for the second.

First: CCN1CC(C(=O)NCCCc2cccc(OC)n2)=C(O)C1=O [Example 265, 1-ethyl-4-hydroxy-N-(3-(6-methoxypyridin-2-yl)propyl)-5-oxo-2,5-dihydro-1H-pyrrole-3-carboxamide]
Second: CC(C)(C)CCN1CC(C(=O)NCCCc2ccc(Cl)c(Cl)c2)=C(O)C1=O [Example 55, N-(3-(3,4-dichlorophenyl)propyl)-1-(3,3-dimethylbutyl)-4-hydroxy-5-oxo-2,5-dihydro-1H-pyrrole-3-carboxamide]
The pIC50 of the first is 2.78 log units lower: 5.46 for the first, 8.24 for the second.

Compared with O=C(NCCCc1ccc(Cl)c(Cl)c1)C1=C(O)C(=O)N(Cc2cccc(Cl)c2)C1 [Example 47, 1-(3-chlorobenzyl)-N-(3-(3,4-dichlorophenyl)propyl)-4-hydroxy-5-oxo-2,5-dihydro-1H-pyrrole-3-carboxamide], O=C(NCCCc1ccc(Cl)c(Cl)c1)C1=C(O)C(=O)N(Cc2cccc(F)c2)C1 [Example 50, N-(3-(3,4-dichlorophenyl)propyl)-1-(3-fluorobenzyl)-4-hydroxy-5-oxo-2,5-dihydro-1H-pyrrole-3-carboxamide] is 0.26 log units lower in pIC50: 8.48 for the first, 8.22 for the second. The first is the more potent here.

Compared with CN1C(=O)C(O)=C(C(=O)NCCCc2ccc(Cl)c(Cl)c2)C1C(C)(C)C (stereo not drawn) [Example 17, 2-tert-butyl-N-(3-(3,4-dichlorophenyl)propyl)-4-hydroxy-1-methyl-5-oxo-2,5-dihydro-1H-pyrrole-3-carboxamide], CC(C)CN1CC(C(=O)NCCCc2ccc(Cl)c(Cl)c2)=C(O)C1=O [Example 42, N-(3-(3,4-dichlorophenyl)propyl)-4-hydroxy-1-isobutyl-5-oxo-2,5-dihydro-1H-pyrrole-3-carboxamide] is 2.16 log units higher in pIC50: 6.37 for the first, 8.53 for the second.

Going from CCOCCN1CC(C(=O)NCCCc2ccc(Cl)c(Cl)c2)=C(O)C1=O [Example 57, N-(3-(3,4-dichlorophenyl)propyl)-1-(2-ethoxyethyl)-4-hydroxy-5-oxo-2,5-dihydro-1H-pyrrole-3-carboxamide] to CCCCN1CC(C(=O)NCCCc2ccc(Cl)c(Cl)c2)=C(O)C1=O [Example 46, 1-butyl-N-(3-(3,4-dichlorophenyl)propyl)-4-hydroxy-5-oxo-2,5-dihydro-1H-pyrrole-3-carboxamide], the pIC50 rises from 8.20 to 8.49 (0.29 log units). The second is the more potent here.

First: CN1CC(C(=O)NCCCc2ccccc2)=C(O)C1=O [Example 166, 4-hydroxy-1-methyl-5-oxo-N-(3-phenylpropyl)-2,5-dihydro-1H-pyrrole-3-carboxamide]
Second: CN1CC(C(=O)NCCc2ccccc2)=C(O)C1=O [Example 3, 4-hydroxy-1-methyl-5-oxo-N-phenethyl-2,5-dihydro-1H-pyrrole-3-carboxamide]
The pIC50 of the first is 0.34 log units lower: 5.19 for the first, 5.53 for the second.

CN1CC(C(=O)NCCc2ccc(Cl)cc2)=C(O)C1=O [Example 5, N-(4-chlorophenethyl)-4-hydroxy-1-methyl-5-oxo-2,5-dihydro-1H-pyrrole-3-carboxamide] and CN1CC(C(=O)NCCc2ccc(Cl)c(Cl)c2)=C(O)C1=O [Example 1, N-(3,4-dichlorophenethyl)-4-hydroxy-1-methyl-5-oxo-2,5-dihydro-1H-pyrrole-3-carboxamide] are within 0.2 log units of each other in pIC50: 6.25 for the first, 6.28 for the second.

First: CC(CCc1ccc(Cl)c(Cl)c1)NC(=O)C1=C(O)C(=O)N(C)C1 (stereo not drawn) [Example 229, N-(4-(3,4-dichlorophenyl)butan-2-yl)-4-hydroxy-1-methyl-5-oxo-2,5-dihydro-1H-pyrrole-3-carboxamide]
Second: CC(C)C(CCc1ccc(Cl)c(Cl)c1)NC(=O)C1=C(O)C(=O)N(C)C1 (stereo not drawn) [Example 230, N-(1-(3,4-dichlorophenyl)-4-methylpentan-3-yl)-4-hydroxy-1-methyl-5-oxo-2,5-dihydro-1H-pyrrole-3-carboxamide]
The pIC50 of the first is 0.32 log units higher: 5.34 for the first, 5.02 for the second. The first is the more potent here.

Going from CN1CC(C(=O)NC(CCc2ccc(Cl)c(Cl)c2)c2ccccc2)=C(O)C1=O (stereo not drawn) [Example 235, N-(3-(3,4-dichlorophenyl)-1-phenylpropyl)-4-hydroxy-1-methyl-5-oxo-2,5-dihydro-1H-pyrrole-3-carboxamide] to O=C(NCCCc1ccc(Cl)c(Cl)c1)C1=C(O)C(=O)N(Cc2ccccc2)C1 [Example 40, 1-benzyl-N-(3-(3,4-dichlorophenyl)propyl)-4-hydroxy-5-oxo-2,5-dihydro-1H-pyrrole-3-carboxamide], the pIC50 rises from 5.51 to 8.44 (2.93 log units).

O=C(NCCCc1ccc(Cl)c(Cl)c1)C1=C(O)C(=O)N(C2CCC2)C1 [Example 39, 1-cyclobutyl-N-(3-(3,4-dichlorophenyl)propyl)-4-hydroxy-5-oxo-2,5-dihydro-1H-pyrrole-3-carboxamide] and O=C(NCCCc1ccc(Cl)c(Cl)c1)C1=C(O)C(=O)N(Cc2ccc(F)cc2)C1 [Example 51, N-(3-(3,4-dichlorophenyl)propyl)-1-(4-fluorobenzyl)-4-hydroxy-5-oxo-2,5-dihydro-1H-pyrrole-3-carboxamide] are within 0.2 log units of each other in pIC50: 8.29 for the first, 8.26 for the second.

O=C(NCCCc1ccc(Cl)c(Cl)c1)C1=C(O)C(=O)N(CCc2ccc(F)cc2)C1 [Example 64, N-(3-(3,4-dichlorophenyl)propyl)-1-(4-fluorophenethyl)-4-hydroxy-5-oxo-2,5-dihydro-1H-pyrrole-3-carboxamide] and O=C(NCCCc1ccc(Cl)c(Cl)c1)C1=C(O)C(=O)N(Cc2cc(Cl)cc(Cl)c2)C1 [Example 60, 1-(3,5-dichlorobenzyl)-N-(3-(3,4-dichlorophenyl)propyl)-4-hydroxy-5-oxo-2,5-dihydro-1H-pyrrole-3-carboxamide] are the same in pIC50: 8.25 for the first, 8.25 for the second.

Compound CN1CC(C(=O)NCCCc2c(Cl)cccc2Cl)=C(O)C1=O [Example 208, N-(3-(2,6-dichlorophenyl)propyl)-4-hydroxy-1-methyl-5-oxo-2,5-dihydro-1H-pyrrole-3-carboxamide] has a pIC50 of 6.42.
